Measurements taken from patent publication US20260035670A1, “IN VITRO CONSTRUCT USEFUL FOR DRUG TOXICITY SCREENING” (Wake Forest University Health Sciences, priority 2022, published 2026).

Experiments:
[1] = test system: oxidative phosphorylation complexes I-V in USC of 3D spheroids; experiment: Oxidative phosphorylation complexes I-V in 3D USC spheroids after ddC (Western blot); format: cell-based, human
Experimental: (§1) To determine the dose effect of ddC on cell viability, mitochondrial function and oxidative stress of USC in both 3D cultures, ddC was added to spheroids and USC-SFM at different doses: 0.2, 2 and 10 μM in the culture medium every 2 days, 3 replicates per concentration. To evaluate the time-dependent effect of ddC on USC in 3D cultures, spheroids and USC-SFM samples were assayed 2-6 weeks after administering ddC, 3 replicates per time point. DMSO (0.1%) was used as a control.
(§2) To generate sufficient cell numbers for immunoblot analysis, USC (5×10^5 cells) within spheroids and 1-SFM were loaded in 81-well molds made by Micro-Tissues 3D Petri Dish (Sigma, USA). USC in 2D culture were seeded onto a 6-well plate at a density of 5×10^5 cells/well as control. After a wash of the cell samples with PBS, the USC were harvested and incubated for 30 min in the presence of […] of lysis buffer (Pierce, Rockford, IL) with 1% protease/phosphatase inhibitor cocktail (Cell Signaling Technology, Danvers, MA), vortexing every 5 min during incubating. The lysate was clarified by centrifugation, and protein concentrations were tested by Pierce™ BCA Protein Assay Kit. Following separation in 15% SDS-PAGE gels, the proteins were transferred onto a PVDF membrane (ThermoFisher) by a Bio-Rad Trans-Blot SD Semi-Dry Transfer Cell under 12 V for 1 h.
(§3) Individual activity of oxidative phosphorylation complexes I, II, II IV, V94 and mitochondrial SOD2 in USC before or after treatment with ddC at three doses were assessed. The membrane was blocked for 30 min in PBS-0.1% Tween 20 (PBST) containing 5% bovine serum albumin (BSA), washed with PBST, and incubated with the primary antibodies for 2 h or 4° C. overnight, diluted by PBST containing 5% BSA. After extensive washing with PBST, the membrane was incubated in the secondary antibodies correspondingly for 1 h at room temperature. The washed membrane was treated with an Immobilon ECL Ultra Western HRP Substrate (Millipore Sigma) and analyzed with a Fujifilm LAS-3000 Luminescent Image Analyzer system.

USC in 2D culture = experiment: Cell viability and growth of USC in 2D culture treated with ddC; format: cell-based, human
Experimental: Cell proliferation or viability was measured at different time points after USC were seeded on 2D, spheroids and 3D-SFM in 96-well plates, respectively, assessed by Cell Counting Kit-8 (CCK-8 assay, Dojindo, Japan), according to manufacturer's instructions. The absorbance at 450 nmwas measured using microplate reader (MultiSkan FC, Thermo, USA).

[2] = test system: USC in 3D silk fiber matrix (3D USC-SFM); experiment: mtDNA content (q-PCR) and mitochondrial mass of USC in 3D USC-SFM treated with ddC; format: cell-based, human
Experimental: (§4) To determine the dose effect of ddC on cell viability, mitochondrial function and oxidative stress of USC in both 3D cultures, ddC was added to spheroids and USC-SFM at different doses: […] 2 days, 3 replicates per concentration. To evaluate the time-dependent effect of ddC on USC in 3D cultures, spheroids and USC-SFM samples were assayed 2-6 weeks after administering ddC, 3 replicates per time point. DMSO (0.1%) was used as a control.
(§5) To measure the levels of cell senescence genes ([…], 21 and Rb) (Kang et al. Science 349 (2015) aaa5612) and mitochondrial DNA (mtDNA) content, mRNA expression of spheroid (n ¼ 3) and 3D USC-SFM (n ¼ 3) samples were assessed using BioRad CFX connect Real-time PCR Detection System (Rooney et al. Methods Mol. Biol. 1241 (2015) 23e38). Genomic DNA was extracted from the cells using a DNeasy Blood & Tissue Kit (Qiagen, Valencia, Cat. No 69504) according to the manufacturer's protocol. The Q-PCR recipe was a mix with SYBR Green SuperMix (ThermoFisher, USA, Cat. No 4367659) using both the mitochondrial and the nuclear primers, and this temperature cycling was used: initial denaturing at 50° C. for 2 min, 95° C. for 15 min, followed by 40 cycles of denaturing at 95° C. for 30 s, annealing at 60° C. for 1 s and extension at 95° C. for 15 s, 60° C. for 1 min, annealing at 95° C. for 15 s, 60° C. for 1 min and dissociating at 95° C. for 15 s.

USC in 3D spheroids = experiment: mtDNA content (q-PCR) and mitochondrial mass of USC in 3D spheroids treated with ddC; format: cell-based, human
Experimental: as §1, §5

[3] = test system: oxidative phosphorylation complexes I-V in USC of 3D USC-SFM; experiment: Oxidative phosphorylation complexes I-V in 3D USC-SFM after ddC (Western blot); format: cell-based, human
Experimental: as §4, §2, §3

USC in 3D USC-SFM = experiment: Cell viability/growth of 3D USC-SFM treated with ddC (CCK-8); format: cell-based, human
Experimental: as §1, with “Cell proliferation or viability was measured at different time points after USC were seeded on 2D, spheroids and 3D-SFM in 96-well plates, respectively, assessed by Cell Counting Kit-8 (CCK-8 assay, Dojindo, Japan), according to manufacturer's instructions. The absorbance at 450 nmwas measured using microplate reader (MultiSkan FC, Thermo, USA). To determine” for “To determine”

microglia cells = conditions: George et al. 2021; cited from earlier work
[4] = Gorwood et al. 2020; cited from earlier work
CD4+ T cells = conditions: Korencak et al. 2019; cited from earlier work
[5] = 3D USC-SFM, six weeks after ddC (0.2, 2, and 10 μM), vs 0.1% DMSO control
[6] = 3D spheroids, six weeks after ddC (0.2, 2, and 10 µM), vs 0.1% DMSO control

Question: With Nc1ccn([C@H]2CC[C@@H](CO)O2)c(=O)n1 [ddC, Zalcitabine] as the molecule, how does the “expression of ETC complex I-IV” value ([1]; 3D organoids, ddC middle and high doses, wk 6) read?
Answer: decrease

Question: And the “levels of complexes I, II and IV” value ([1]; 3D spheroids, low dose ddC)?
Answer: significantly increased

Question: And the “mitochondrial toxicity (decreasing levels of complexes I-IV)” value ([1]; spheroids)?
Answer: significant dose- and time-dependent

Question: What about the “complex I level (only complex affected)” value ([1]; spheroids treated with ddC) of the same molecule?
Answer: declined

Question: What about the “cell viability and growth of USC” value (USC in 2D culture) of the same molecule?
Answer: significantly affected

Question: What about the “cells remaining on the dishes” value (USC in 2D culture; 2 weeks after ddC treatment) of the same molecule?
Answer: few cells remaining

Question: What about the “Levels of mtDNA content” value ([2]; 3D USC-SFM, 2 and 6 weeks, ddC 0.2, 2, or 20 μM, vs DMSO standardized as 100%) of the same molecule?
Answer: significantly decreased

Question: What about the “Manner of decrease of mtDNA content” value ([2]; 3D USC-SFM, q-PCR) of the same molecule?
Answer: time-depended manner

Question: What about the mitochondrial mass [2, 5] of the same molecule?
Answer: significantly decreased

Question: What about the mtDNA content [2, 5] of the same molecule?
Answer: significantly decreased

Question: What about the mtDNA content ([2]; ddC at 2 or 20 μM compared to 0.1 μM ddC, 3D culture of USC (model not given)) of the same molecule?
Answer: significantly inhibited

Question: And the “Levels of mtDNA content” value (USC in 3D spheroids; 3D spheroid of USC, 2 and 6 weeks, ddC 0.2, 2, or 20 μM, vs DMSO standardized as 100%)?
Answer: significantly decreased

Question: And the “Manner of decrease of mtDNA content” value (USC in 3D spheroids; 3D spheroids of USC, q-PCR)?
Answer: dose-dependent manner

Question: What about the mitochondrial mass (USC in 3D spheroids; [6]) of the same molecule?
Answer: significantly decreased

Question: What about the mtDNA content (USC in 3D spheroids; [6]) of the same molecule?
Answer: significantly decreased

Question: And the “levels of complex I, and IV” value ([3]; 2 weeks, ddC 2 and 10 μM vs low dose (0.1 μM))?
Answer: significantly decreased

Question: What about the “mitochondrial toxicity (decreasing levels of complexes I-IV)” value ([3]; 3D SFM) of the same molecule?
Answer: significant dose- and time-dependent

Question: What about the “Levels of complexes I, II, and III” value ([3]; 3D SFM-USC treated with ddC) of the same molecule?
Answer: significantly decreased

Question: What about the “levels of complexes II, III and IV” value ([3]; 3D USC-SFM compared to complex levels in spheroids) of the same molecule?
Answer: significantly decreased

Question: What about the “chronic MtT” value ([3]; 3D USC-SFM model) of the same molecule?
Answer: dose- and time-dependent chronic MtT displayed

Question: What about the “complex I-IV levels” value ([3]; 3D USC-SFM, ddC 2 and 10 μM, 6 weeks compared to 2 weeks) of the same molecule?
Answer: significantly decreased

Question: What about the “increase of levels of complexes I, II and IV” value ([3]; 3D USC-SFM, low dose ddC) of the same molecule?
Answer: did not occur

Question: What about the “mitochondrial function (inhibiting oxidative phosphorylation complex I-IV)” value ([3]; 3D culture models) of the same molecule?
Answer: significant impairment

Question: And the “levels of complex I, II, III and IV” value ([3]; 6 weeks, middle and high dose ddC vs low dose)?
Answer: significantly declined

Question: What about the “activity of complex II-IV” value ([3]; USC-SFM, ddC middle and high doses vs low dose, week 6) of the same molecule?
Answer: significantly decreased

Question: What about the “expression of ETC complex I-IV” value ([3]; USC-SFM, ddC middle and high doses, wk 6) of the same molecule?
Answer: decrease

Question: And the “cell survival and growth” value (USC in 3D USC-SFM; 3D USC-SFM, 3 days, or 1, 2, 4, and 6 weeks)?
Answer: did not significantly affect

Question: What about the cytotoxicity (USC in 3D USC-SFM; USC in 3D cultures) of the same molecule?
Answer: mild

Question: Which mitochondrial dysfunction (microglia cells) does the source give for C[C@@H]1CCO[C@H]2Cn3cc(C(=O)NCc4ccc(F)cc4F)c(=O)c(O)c3C(=O)N12 [dolutegravir] here?
Answer: induces mitochondrial dysfunction

Question: What about the “pro-adipogenic and pro-lipogenic effects, oxidative stress, mitochondrial dysfunction, insulin resistance” value [4] of the same molecule?
Answer: display pro-adipogenic and pro-lipogenic effects, and promote oxidative stress, mitochondrial dysfunction, and insulin resistance

Question: What about the “levels of mitochondrial ROS and mitochondrial mass” value (CD4+ T cells) of the same molecule?
Answer: increased

Question: Which “levels of mitochondrial ROS and mitochondrial mass” value (CD4+ T cells) does the source give for COc1cc2c(cc1Cc1cccc(Cl)c1F)c(=O)c(C(=O)O)cn2[C@H](CO)C(C)C [elvitegravir] here?
Answer: increased
